Patent US9493411B2 (AbbVie Inc., priority 2013, dated 2016)

How the values were obtained:
[1] = biological target: T1, BRD4 (BDI_K57-E168) (Homo sapiens, UniProt O60885); test: TR-FRET bromodomain binding assay, BRD4 first bromodomain; details: His-tagged BD1, Alexa647-labeled probe 100 nM; Ki calculated from IC50
T1 construct: BD1: amino acids K57-E168; made in house
Method in brief: (§1)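 Competition of compound (50 μM-0.85 nM, 2% DMSO) against an Alexa647-labelled BET-inhibitor probe, 100 nM for BDI or 30 nM for BDII, on 8 nM His-BRD4 bromodomain detected by 1 nM Eu-anti-His; 20 mM sodium phosphate pH 6.0, 1 h room temperature. Normalised to unlabelled-probe controls; IC50 converted to Ki.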

[2] = biological target: T2, BRD4 (BDII_E352-M457) (Homo sapiens, UniProt O60885); test: TR-FRET bromodomain binding assay, BRD4 second bromodomain; details: His-tagged BD2, Alexa647-labeled probe 30 nM; Ki calculated from IC50
T2 construct: made in house
Method in brief: as §1

[3] = test system: breast cancer cell line MX-1; test: MX-1 cell line proliferation assay; type: cell-based; details: Homo sapiens, MX1, 72 h, MX-1 cells, 3-day proliferation assay, Cell Titer Glo; read-out: Cellular proliferation: EC50
Description: The impact of compounds of the Examples on cancer cell proliferation was determined using the breast cancer cell line MX-1 (ATCC) in a 3-day proliferation assay and the data are reported in Table 1. MX-1 cells were maintained in RPMI 1640 medium (Sigma) supplemented with 10% FBS at 37° C. and an atmosphere of 5% CO2. For compound testing, MX-1 cells were plated in 96-well black bottom plates at a density of 5000 cells/well in 90 μL of culture media and incubated at 37° overnight to allow cell adhesion and spreading. Compound dilution series were prepared in DMSO via a 3-fold serial dilution from 3 mM to 0.1 μM. The DMSO dilution series were then diluted 1:100 in phosphate buffered saline, and 10 μL of the resulted solution were added to the appropriate wells of the MX-1 cell plate. The final compound concentrations in the wells were 3, 1, 0.3, 0.1, 0.03, 0.01, 0.003, 0.001, 0.0003 and 0.0001 μM.
Luminescence readings from the Cell Titer Glo assay were normalized to the DMSO treated cells and analyzed using the GraphPad Prism software with sigmoidal curve fitting to obtain EC50s. The minimum significant ratio (MSR) was determined to evaluate assay reproducibility (Eastwood et al., (2006) J Biomol Screen, 11: 253-261).

| Compound | Ki [1] [nM] | Ki [2] [nM] | EC50 [3] [nM] |
| --- | --- | --- | --- |
| Cc1[nH]c(-c2ccccc2NCC2CCNCC2)cc1C(N)=O [Example 43, 2-methyl-5-{2-[(piperidin-4-ylmethyl)amino]phenyl}-1H-pyrrole-3-carboxamide] | 469 | 11000 | > 10000 |
| Cc1[nH]c(-c2ccccc2NCC2CCCC2)cc1C(N)=O [Example 14, 5-{2-[(cyclopentylmethyl)amino]phenyl}-2-methyl-1H-pyrrole-3-carboxamide] | 209 | 722 | 465 |
| Cc1cccc(Oc2ccccc2-c2cc(C(N)=O)c(C)[nH]2)c1 [Example 134, 2-methyl-5-[2-(3-methylphenoxy)phenyl]-1H-pyrrole-3-carboxamide] | 493 | 1170 | > 10000 |
| Cc1[nH]c(-c2ccccc2NCc2ccc3[nH]ccc3c2)cc1C(N)=O [Example 56, 5-{2-[(1H-indol-5-ylmethyl)amino]phenyl}-2-methyl-1H-pyrrole-3-carboxamide] | 1630 | 2690 | > 10000 |
| Cc1[nH]c(-c2ccccc2Oc2ccc3ccccc3c2)cc1C(N)=O [Example 139, 2-methyl-5-[2-(naphthalen-2-yloxy)phenyl]-1H-pyrrole-3-carboxamide] | 728 | 1190 | 8560 |
| Cc1[nH]c(-c2ccccc2NC[C@H]2CC[C@@H](NC(=O)OC(C)(C)C)CC2)cc1C(N)=O [Example 45, tert-butyl [cis-4-({[2-(4-carbamoyl-5-methyl-1H-pyrrol-2-yl)phenyl]amino}methyl)cyclohexyl]carbamate] | 434 | 9290 | 5440 |
| Cc1[nH]c(-c2ccccc2NCc2cccs2)cc1C(N)=O [Example 38, 2-methyl-5-{2-[(thiophen-2-ylmethyl)amino]phenyl}-1H-pyrrole-3-carboxamide] | 622 | 1140 | 3800 |
| Cc1[nH]c(-c2ccccc2NCC2CCN(C(=O)OC(C)(C)C)C2)cc1C(N)=O (stereo not drawn) [Example 40, tert-butyl 3-({[2-(4-carbamoyl-5-methyl-1H-pyrrol-2-yl)phenyl]amino}methyl)pyrrolidine-1-carboxylate] | 212 | 5580 | > 10000 |
| Cc1[nH]c(-c2ccccc2N(Cc2ccc(OCCCN(C)C)cc2)CC2CCCC2)cc1C(N)=O [Example 57, 5-{2-[(cyclopentylmethyl){4-[3-(dimethylamino)propoxy]benzyl}amino]phenyl}-2-methyl-1H-pyrrole-3-carboxamide] | 392 | 1900 | > 3000 |
| Cc1[nH]c(-c2ccccc2Cc2ccccc2)cc1C(N)=O [Example 148, 5-(2-benzylphenyl)-2-methyl-1H-pyrrole-3-carboxamide] | 355 | 605 | 4320 |
| Cc1[nH]c(-c2ccccc2NCCC2CCN(C(=O)OC(C)(C)C)CC2)cc1C(N)=O [Example 44, tert-butyl 4-(2-{[2-(4-carbamoyl-5-methyl-1H-pyrrol-2-yl)phenyl]amino}ethyl)piperidine-1-carboxylate] | 322 | 1790 | > 10000 |
| Cc1[nH]c(-c2ccccc2Oc2cccc3ncccc23)cc1C(N)=O [Example 128, 2-methyl-5-[2-(quinolin-5-yloxy)phenyl]-1H-pyrrole-3-carboxamide] | 27.3 | 318 | 400 |
| Cc1[nH]c(-c2ccccc2Oc2ccc(Cl)cc2F)cc1C(N)=O [Example 129, 5-[2-(4-chloro-2-fluorophenoxy)phenyl]-2-methyl-1H-pyrrole-3-carboxamide] | 281 | 2240 | 2250 |
| Cc1[nH]c(-c2ccccc2NCc2ccccc2)cc1C(N)=O [Example 12, 5-[2-(benzylamino)phenyl]-2-methyl-1H-pyrrole-3-carboxamide] | 935 | 3900 | 3440 |
| Cc1[nH]c(-c2cccc(-c3cccc(CN4CCN(C)CC4)c3)c2)cc1C(N)=O [Example 158, 2-methyl-5-{3′-[(4-methylpiperazin-1-yl)methyl]biphenyl-3-yl}-1H-pyrrole-3-carboxamide] | 1500 | 2140 | 7750 |
